Laboratory results reported in US10251394B2, “Molecules having pesticidal utility, and intermediates, compositions, and processes, related thereto” (Dow AgroSciences LLC, priority 2016, dated 2019).

Assays:
Format in all cases: in vivo
[1] = test system: Beet Armyworm (Spodoptera exigua); test: Bioassay on Beet Armyworm (BAW), 128-well diet tray assay; conditions: Beet Armyworm, Table ABC, read-out: BAW rating
How it was run: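 Second-instar larvae (one to five per well) placed on artificial diet surface-treated with 50 μg/cm^2 test molecule in 90:10 acetone-water, dried, eight wells per molecule. Held at 25° C, 14:10 light-dark, five to seven days; percent mortality recorded per well and averaged across the eight wells.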

[2] = test system: Yellow Fever Mosquito (Aedes aegypti); test: Bioassay on Yellow Fever Mosquito (YFM) larvae, 96-well plate; conditions: Table ABC
Protocol: Example C: Bioassays on Yellow Fever Mosquito (Aedes Aegypti, AEDSAE) (“YFM”)
Certain molecules disclosed in this document were tested against YFM using procedures described in the following paragraph. In the reporting of the results, the “GPA & YFM Rating Table” was used (See Table Section).
Master plates containing 400 μg of a molecule dissolved in 100 μL of dimethyl sulfoxide (DMSO) (equivalent to a 4000 ppm solution) are used. A master plate of assembled molecules contains 15 μL per well. To this plate, 135 μL of a 90:10 water:acetone mixture is added to each well. A robot (Biomek® NXP Laboratory Automation Workstation) is programmed to dispense 15 μL aspirations from the master plate into an empty 96-well shallow plate (“daughter” plate). There are 6 reps (“daughter” plates) created per master. The created daughter plates are then immediately infested with YFM larvae.
The day before plates are to be treated, mosquito eggs are placed in Millipore water containing liver powder to begin hatching (4 g. into 400 mL). After the daughter plates are created using the robot, they are infested with 220 μL of the liver powder/larval mosquito mixture (about 1 day-old larvae). After plates are infested with mosquito larvae, a non-evaporative lid is used to cover the plate to reduce drying. Plates are held at room temperature for 3 days prior to grading. After 3 days, each well is observed and scored based on mortality. The results are indicated in the table entitled “Table ABC: Biological Results” (See Table Section).

[3] = test system: Cabbage Looper (Trichoplusia ni); test: Bioassay on Cabbage Looper (CL), 128-well diet tray assay; conditions: Cabbage Looper, Table ABC, read-out: CL rating
How it was run: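 Second-instar larvae, one to five per well, placed on artificial diet surface-treated with 50 μg/cm^2 compound in acetone-water, eight wells per compound. Held 5-7 days at 25° C, 14:10 light-dark; percent mortality per well averaged across wells.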

## Cc1cc(C(/C=C(\F)c2ccc(C(=O)NC3(C(=O)N(C)CC(F)(F)F)CC3)c(C(F)(F)F)c2)C(F)(F)F)cc(C)c1Cl (centres unmarked) [F119, (Z)-4-(3-(4-Chloro-3,5-dimethylphenyl)-1,4,4,4-tetrafluorobut-1-en-1-yl)-N-(1-(methyl(2,2,2-trifluoroethyl)carbamoyl)cyclopropyl)-2-(trifluoromethyl)benzamide]
[1]
  pest or weed control at 50 µg/cm2: 50 to 100%
[2]
  YFM rating: B (More than 0-Less than 80)
[3]
  pest or weed control at 50 µg/cm2: 50 to 100%

## C[C@@H](NC(=O)c1ccc(/C(F)=C/C(c2cc(Cl)cc(Br)c2)C(F)(F)F)cc1C(F)(F)F)C(=O)N(C)CC(F)(F)F (stereo partly drawn) [PF31, 4-((Z)-3-(3-Bromo-5-chlorophenyl)-1,4,4,4-tetrafluorobut-1-en-1-yl)-N—((R)-1-(methyl(2,2,2-trifluoroethyl)amino)-1-oxopropan-2-yl)-2-(trifluoromethyl)benzamide]
[1]
  pest or weed control at 50 µg/cm2: 50 to 100%
[2]
  YFM rating: B (More than 0-Less than 80)
[3]
  pest or weed control at 50 µg/cm2: 50 to 100%

## O=C(CNC(=S)c1ccc(/C(F)=C/C(c2cc(Cl)c(Cl)c(Cl)c2)C(F)(F)F)cc1C(F)(F)F)NCC(F)(F)F (centres unmarked) [PF82, (Z)-2-(4-(1,4,4,4-tetrafluoro-3-(3,4,5-trichlorophenyl)but-1-en-1-yl)-2-(trifluoromethyl)phenylthioamido)-N-(2,2,2-trifluoroethyl)acetamide]
[1]
  pest or weed control at 50 µg/cm2: 50 to 100%
[2]
  YFM rating: A (80-100)
[3]
  pest or weed control at 50 µg/cm2: 50 to 100%

## C[C@@H](NC(=O)c1ccc(/C(F)=C/C(c2cc(Cl)c(Cl)c(Cl)c2)C(F)(F)F)c2ccccc12)C(=O)NCC(F)(F)F (stereo partly drawn) [PF1, N—((R)-1-Oxo-1-((2,2,2-trifluoroethyl)amino)propan-2-yl)-4-((Z)-1,4,4,4-tetrafluoro-3-(3,4,5-trichlorophenyl)but-1-en-1-yl)-1-naphthamide]
[1]
  pest or weed control at 50 µg/cm2: 50 to 100%
[2]
  YFM rating: A (80-100)
[3]
  pest or weed control at 50 µg/cm2: 50 to 100%

## Cc1cc(C(/C=C(\F)c2ccc(C(=O)NC3(C(=O)NCC(F)(F)F)CC3)c(C(F)(F)F)c2)C(F)(F)F)cc(C)c1Cl (centres unmarked) [F70, (Z)-4-(3-(4-Chloro-3,5-dimethylphenyl)-1,4,4,4-tetrafluorobut-1-en-1-yl)-N-(1-((2,2,2-trifluoroethyl)carbamoyl)cyclopropyl)-2-(trifluoromethyl)benzamide]
[1]
  pest or weed control at 50 µg/cm2: 50 to 100%
[2]
  YFM rating: A (80-100)
[3]
  pest or weed control at 50 µg/cm2: 50 to 100%

## CN(CC(F)(F)F)C(=O)C1(NC(=O)c2ccc(/C(F)=C/C(c3ccc(F)c(Cl)c3)C(F)(F)F)cc2C(F)(F)F)CC1 (centres unmarked) [PF10]
[1]
  pest or weed control at 50 µg/cm2: 50 to 100%
[2]
  YFM rating: A (80-100)
[3]
  pest or weed control at 50 µg/cm2: 50 to 100%

## C[C@@H](NC(=O)c1ccc(/C(F)=C/C(c2ccc(F)c(Cl)c2)C(F)(F)F)cc1C(F)(F)F)C(=O)N(C)CC(F)(F)F (stereo partly drawn) [PF8, 4-((Z)-3-(3-Chloro-4-fluorophenyl)-1,4,4,4-tetrafluorobut-1-en-1-yl)-N—((R)-1-(methyl(2,2,2-trifluoroethyl)amino)-1-oxopropan-2-yl)-2-(trifluoromethyl)benzamide]
[1]
  pest or weed control at 50 µg/cm2: 50 to 100%
[2]
  YFM rating: B (More than 0-Less than 80)
[3]
  pest or weed control at 50 µg/cm2: 50 to 100%

## C[C@@H](NC(=O)c1ccc(/C(F)=C/C(c2cc(Cl)cc(Cl)c2)C(F)(F)F)cc1C(F)(F)F)C(=O)N(C)CC(F)(F)F (stereo partly drawn) [F72, 4-((Z)-3-(3,5-Dichlorophenyl)-1,4,4,4-tetrafluorobut-1-en-1-yl)-N—((R)-1-(methyl(2,2,2-trifluoroethyl)amino)-1-oxopropan-2-yl)-2-(trifluoromethyl)benzamide]
[1]
  pest or weed control at 50 µg/cm2: 50 to 100%
[2]
  YFM rating: A (80-100)
[3]
  pest or weed control at 50 µg/cm2: 50 to 100%

## C[C@@H](NC(=O)c1ccc(/C(F)=C/C(c2cc(Cl)cc(Cl)c2)C(F)(F)F)cc1C(F)(F)F)C(=O)NCC(F)(F)F (stereo partly drawn) [F144, 4-((Z)-3-(3,5-Dichlorophenyl)-1,4,4,4-tetrafluorobut-1-en-1-yl)-N—((R)-1-oxo-1-((2,2,2-trifluoroethyl)amino)propan-2-yl)-2-(trifluoromethyl)benzamide]
[2]
  YFM rating: A (80-100)

## Cc1cc(C(/C=C(\F)c2ccc(C(=O)NC3(C(=O)N(C)CC(F)(F)F)CC3)c(C(F)(F)F)c2)C(F)(F)F)cc(C)c1Cl (centres unmarked) [F134, (Z)-4-(3-(4-Chloro-3,5-dimethylphenyl)-1,4,4,4-tetrafluorobut-1-en-1-yl)-N-(1-(methyl(2,2,2-trifluoroethyl)carbamoyl)cyclopropyl)-2-(trifluoromethyl)benzamide]
[2]
  YFM rating: B (More than 0-Less than 80)

## CN(CC(F)(F)F)C(=O)C1(NC(=O)c2ccc(/C(F)=C/C(c3cc(Cl)cc(Cl)c3)C(F)(F)F)cc2C(F)(F)F)CC1 (centres unmarked) [F133, (Z)-4-(3-(3,5-Dichlorophenyl)-1,4,4,4-tetrafluorobut-1-en-1-yl)-N-(1-(methyl(2,2,2-trifluoroethyl)carbamoyl)cyclopropyl)-2-(trifluoromethyl)benzamide]
[2]
  YFM rating: B (More than 0-Less than 80)

## CN(CC(F)(F)F)C(=O)C1(NC(=O)c2ccc(/C(F)=C/C(c3ccc(Cl)c(Cl)c3)C(F)(F)F)cc2C(F)(F)F)CC1 (centres unmarked) [F135, (Z)-4-(3-(3,4-Dichlorophenyl)-1,4,4,4-tetrafluorobut-1-en-1-yl)-N-(1-(methyl(2,2,2-trifluoroethyl)carbamoyl)cyclopropyl)-2-(trifluoromethyl)benzamide]
[2]
  YFM rating: B (More than 0-Less than 80)

## C=CCNC(=O)C1(NC(=O)c2ccc(/C(F)=C/C(c3cc(Cl)c(Cl)c(Cl)c3)C(F)(F)F)cc2C)CC1 (centres unmarked) [F9, (Z)—N-(1-(Allylcarbamoyl)cyclopropyl)-2-methyl-4-(1,4,4,4-tetrafluoro-3-(3,4,5-trichlorophenyl)but-1-en-1-yl)benzamide]
[1]
  pest or weed control at 50 µg/cm2: 50 to 100%
[3]
  pest or weed control at 50 µg/cm2: 50 to 100%

## C=Cc1cc(/C(F)=C/C(c2cc(Cl)c(Cl)c(Cl)c2)C(F)(F)F)ccc1C(=O)NCC(=O)NCC(F)(F)F (centres unmarked) [F200, (Z)—N-(2-Oxo-2-((2,2,2-trifluoroethyl)amino)ethyl)-4-(1,4,4,4-tetrafluoro-3-(3,4,5-trichlorophenyl)but-1-en-1-yl)-2-vinylbenzamide]
[1]
  pest or weed control at 50 µg/cm2: 50 to 100%
[3]
  pest or weed control at 50 µg/cm2: 50 to 100%

## CN(CC(F)(F)F)C(=O)C1(NC(=O)c2ccc(/C(F)=C/C(c3cc(Br)cc(Br)c3)C(F)(F)F)cc2C(F)(F)F)CC1 (centres unmarked) [F108, (Z)-4-(3-(3,5-Dibromophenyl)-1,4,4,4-tetrafluorobut-1-en-1-yl)-N-(1-(methyl(2,2,2-trifluoroethyl)carbamoyl)cyclopropyl)-2-(trifluoromethyl)benzamide]
[1]
  pest or weed control at 50 µg/cm2: 50 to 100%
[3]
  pest or weed control at 50 µg/cm2: 50 to 100%

## CN(CC(F)(F)F)C(=O)CNC(=O)c1ccc(/C(F)=C/C(c2cc(Cl)c(Cl)c(Cl)c2)C(F)(F)F)cc1Cl (centres unmarked) [F47, (Z)-2-Chloro-N-(2-(methyl(2,2,2-trifluoroethyl)amino)-2-oxoethyl)-4-(1,4,4,4-tetrafluoro-3-(3,4,5-trichlorophenyl)but-1-en-1-yl)benzamide]
[1]
  pest or weed control at 50 µg/cm2: 50 to 100%
[3]
  pest or weed control at 50 µg/cm2: 50 to 100%

## O=C(NC1(C(=O)CCC(F)(F)F)CC1)c1ccc(/C(F)=C/C(c2cc(Cl)c(Cl)c(Cl)c2)C(F)(F)F)cc1C(F)(F)F (centres unmarked) [F56, (Z)-4-(1,4,4,4-Tetrafluoro-3-(3,4,5-trichlorophenyl)but-1-en-1-yl)-N-(1-(4,4,4-trifluorobutanoyl)cyclopropyl)-2-(trifluoromethyl)benzamide]
[1]
  pest or weed control at 50 µg/cm2: 50 to 100%
[3]
  pest or weed control at 50 µg/cm2: 50 to 100%

## CC#Cc1cc(C(/C=C(\F)c2ccc(C(=O)N[C@H](C)C(=O)NCC(F)(F)F)c(C(F)(F)F)c2)C(F)(F)F)cc(Cl)c1Cl (stereo partly drawn) [F190, 4-((Z)-3-(3,4-Dichloro-5-(prop-1-yn-1-yl)phenyl)-1,4,4,4-tetrafluorobut-1-en-1-yl)-N—((R)-1-oxo-1-((2,2,2-trifluoroethyl)amino)propan-2-yl)-2-(trifluoromethyl)benzamide]
[1]
  pest or weed control at 50 µg/cm2: 50 to 100%
[3]
  pest or weed control at 50 µg/cm2: 50 to 100%

## Cc1cc(/C(F)=C/C(c2cc(Cl)c(Cl)c(Cl)c2)C(F)(F)F)ccc1C(=O)N[C@H](C)C(=O)NCCC1CC1 (stereo partly drawn) [F15, N—((R)-1-((2-Cyclopropylethyl)amino)-1-oxopropan-2-yl)-2-methyl-4-((Z)-1,4,4,4-tetrafluoro-3-(3,4,5-trichlorophenyl)but-1-en-1-yl)benzamide]
[1]
  pest or weed control at 50 µg/cm2: 50 to 100%
[3]
  pest or weed control at 50 µg/cm2: 50 to 100%

## CC(C)(NC(=O)c1ccc(/C(F)=C/C(c2cc(Cl)c(Cl)c(Cl)c2)C(F)(F)F)cc1C(F)(F)F)C(=O)NCC(F)(F)F (centres unmarked) [F54, (Z)—N-(2-Methyl-1-oxo-1-((2,2,2-trifluoroethyl)amino)propan-2-yl)-4-(1,4,4,4-tetrafluoro-3-(3,4,5-trichlorophenyl)but-1-en-1-yl)-2-(trifluoromethyl)benzamide]
[1]
  pest or weed control at 50 µg/cm2: 50 to 100%
[3]
  pest or weed control at 50 µg/cm2: 50 to 100%
